This note sets out measurements from ChEMBL document CHEMBL2074384, “Reduced folate derivatives are endogenous substrates for cMOAT in rats” (Am J Physiol, 1998).

Series [1] concerns the target T1, ATP-binding cassette sub-family C member 2 (Rattus norvegicus, UniProt Q63120). Put plainly: TP_TRANSPORTER: inhibition of 5-methyltetrahydrofolate uptake in bile canalicular membrane vesicles from SD rat. It is filed as functional, cell membranes, Sprague-Dawley, Bile canalicular membrane vesicle.
For series [2], the target named is T1, ATP-binding cassette sub-family C member 2. Nature of the series: TP_TRANSPORTER: inhibition of DNP-SG uptake in bile canalicular membrane vesicles from SD rat. The series is classed as functional, cell membranes, Sprague-Dawley, Bile canalicular membrane vesicle.
Substrate in series [3]: CN1c2c(nc(N)[nH]c2=O)NC[C@@H]1CNc1ccc(C(=O)N[C@@H](CCC(=O)O)C(=O)O)cc1
Put plainly: cells, lysate or membranes named.

With `N[C@@H](CCC(=O)N[C@H](CSc1ccc([N+](=O)[O-])cc1[N+](=O)[O-])C(=O)NCC(=O)O)C(=O)O`, the affinity in series [1] corresponds to a Ki of 34.5 µM. This counts as double-digit micromolar.

Turning to `CN1c2c(nc(N)[nH]c2=O)NC[C@@H]1CNc1ccc(C(=O)N[C@@H](CCC(=O)O)C(=O)O)cc1` [LEVOMEFOLIC ACID], in series [2], the inhibitory constant (Ki) was 121 µM.

In series [2], `Nc1nc2c(c(=O)[nH]1)NC(CNc1ccc(C(=O)N[C@@H](CCC(=O)O)C(=O)O)cc1)CN2` (stereo not given in full) [TETRAHYDROFOLATE] showed a Ki of 358 µM. This Ki lies about 3-fold higher than the previous one.

In the case of `Nc1nc2c(c(=O)[nH]1)N1CN(c3ccc(C(=O)N[C@@H](CCC(=O)O)C(=O)O)cc3)CC1CN2` (stereo not given in full) [FOLITIXORIN], in series [2], affinity was put at a Ki of 269 µM.

B1: ATP-binding cassette sub-family C member 2 (Rattus norvegicus) (protein)
chain: MDKFCNSTFWDLSLLESPEADLPLCFEQTVLVWIPLGFLWLLAPWQLYSVYRSRTKRSSITKFYLAKQVFVVFLLILAAIDLSLALTEDTGQATVPPVRYTNPILYLCTWLLVLAVQHSRQWCVRKNSWFLSLFWILSVLCGVFQFQTLIRALLKDSKSNMAYSYLFFVSYGFQIVLLILTAFSGPSDSTQTPSVTASFLSSITFSWYDRTVLKGYKHPLTLEDVWDIDEGFKTRSVTSKFEAAMTKDLQKARQAFQRRLQKSQRKPEATLHGLNKKQSQSQDVLVLEEAKKKSEKTTKDYPKSWLIKSLFKTFHVVILKSFILKLIHDLLVFLNPQLLKLLIGFVKSSNSYVWFGYICAILMFAVTLIQSFCLQSYFQHCFVLGMCVRTTVMSSIYKKALTLSNLARKQYTIGETVNLMSVDSQKLMDATNYMQLVWSSVIQITLSIFFLWRELGPSILAGVGVMVLLIPVNGVLATKIRNIQVQNMKNKDKRLKIMNEILSGIKILKYFAWEPSFQEQVQGIRKKELKNLLRFGQLQSLLIFILQITPILVSVVTFSVYVLVDSANVLNAEKAFTSITLFNILRFPLSMLPMVTSSILQASVSVDRLERYLGGDDLDTSAIRRVSNFDKAVKFSEASFTWDPDLEATIQDVNLDIKPGQLVAVVGTVGSGKSSLVSAMLGEMENVHGHITIQGSTAYVPQQSWIQNGTIKDNILFGSEYNEKKYQQVLKACALLPDLEILPGGDMAEIGEKGINLSGGQKQRVSLARAAYQDADIYILDDPLSAVDAHVGKHIFNKVVGPNGLLAGKTRIFVTHGIHFLPQVDEIVVLGKGTILEKGSYRDLLDKKGVFARNWKTFMKHSGPEGEATVNNDSEAEDDDDGLIPTMEEIPEDAASLAMRRENSLRRTLSRSSRSSSRRGKSLKNSLKIKNVNVLKEKEKEVEGQKLIKKEFVETGKVKFSIYLKYLQAVGWWSILFIILFYGLNNVAFIGSNLWLSAWTSDSDNLNGTNNSSSHRDMRIGVFGALGLAQGICLLISTLWSIYACRNASKALHGQLLTNILRAPMRFFDTTPTGRIVNRFSGDISTVDDLLPQTLRSWMMCFFGIAGTLVMICMATPVFAIIIIPLSILYISVQVFYVATSRQLRRLDSVTKSPIYSHFSETVTGLPIIRAFEHQQRFLAWNEKQIDINQKCVFSWITSNRWLAIRLELVGNLVVFCSALLLVIYRKTLTGDVVGFVLSNALNITQTLNWLVRMTSEAETNIVAVERISEYINVENEAPWVTDKRPPADWPRHGEIQFNNYQVRYRPELDLVLKGITCNIKSGEKVGVVGRTGAGKSSLTNCLFRILESAGGQIIIDGIDVASIGLHDLRERLTIIPQDPILFSGSLRMNLDPFNKYSDEEVWRALELAHLRSFVSGLQLGLLSEVTEGGDNLSIGQRQLLCLGRAVLRKSKILVLDEATAAVDLETDSLIQTTIRKEFSQCTVITIAHRLHTIMDSDKIMVLDNGKIVEYGSPEELLSNRGSFYLMAKEAGIENVNHTEL
Turning to B1, the Km in series [3] was 126 µM.
